Laboratory results reported in ChEMBL document CHEMBL5113433, “Biological evaluation for anti-inflammatory effect of africane-type sesquiterpenoids” (Bioorg Med Chem, 2022).
The source made the active and inactive calls. The calls are words filed in the database; no cut-off is given here.

How the values were obtained:
RAW264.7 [1] = experiment: Antiinflammatory activity in LPS-induced mouse RAW264.7 cells assessed as decrease in COX-2 expression at 10 uM pretreated for 2 hrs followed by stimulation with LPS for 22 hrs by Western blot analysis; type: functional, cell-based; settings: time 24.0 hrs
RAW264.7 [2] = experiment: Antiinflammatory activity in LPS-induced mouse RAW264.7 cells assessed as decrease in COX-2 expression pretreated for 2 hrs followed by stimulation with LPS for 22 hrs by Western blot analysis; type: functional, cell-based
[3] = Cytotoxicity against mouse RAW264.7 cells assessed as cell viability after 24 hrs by MTT assay; type: toxicity, cell-based
RAW264.7 [4] = experiment: Antiinflammatory activity in LPS-induced mouse RAW264.7 cells assessed as decrease in IL-6 expression at 6 uM pretreated for 2 hrs followed by stimulation with LPS for 6 hrs by Western blot analysis; type: functional, cell-based; settings: time 8.0 hrs
RAW264.7 [5] = experiment: Antiinflammatory activity in LPS-induced mouse RAW264.7 cells assessed as decrease in IL-1beta expression at 6 uM pretreated for 2 hrs followed by stimulation with LPS for 6 hrs by Western blot analysis; type: functional, cell-based
RAW264.7 [6] = experiment: Antiinflammatory activity in LPS-induced mouse RAW264.7 cells assessed as decrease in IL-6 expression at 6 uM pretreated for 2 hrs followed by stimulation with LPS for 6 hrs by RT-PCR analysis; type: functional, cell-based
RAW264.7 [7] = experiment: Antiinflammatory activity in LPS-induced mouse RAW264.7 cells assessed as decrease in IL-1beta expression at 6 uM pretreated for 2 hrs followed by stimulation with LPS for 6 hrs by RT-PCR analysis; type: functional, cell-based

Row | SMILES | IC50 (RAW264.7 [2]; Mus musculus, RAW264.7) [µM] | IC50 (RAW264.7 [2]; raw264.7) [µM] | Activity (RAW264.7 [1]) | IC50 at 24 h [3] [µM] | Activity (RAW264.7 [4]) | Activity (RAW264.7 [5]) | Activity (RAW264.7 [6]) | Activity (RAW264.7 [7])
1 | CC(=O)OC[C@@]1(O)CC[C@@H]2[C@@H]1CC(C)(C)C[C@H]1C[C@]12C | 4.61 |  | Active | > 10 | Active | Active | Active | Active
2 | CC(=O)OCC1(O)CCC2C1CC(C)(C)CC1CC12C (single isomer, unassigned; (+)) [listing 1 of 2 here] |  |  | Active |  | Active | Active | Active | Active
3 | CC(=O)OC[C@]1(O)CC[C@@H]2[C@@H]1CC(C)(C)C[C@H]1C[C@]12C |  |  | Active |  |  |  |  | 
4 | CC(=O)OCC1(O)CCC2C1CC(C)(C)CC1CC12C (single isomer, unassigned; (-)) [listing 2 of 2 here] |  |  | Active |  | Active | Active | Active | Active
5 | C=CCC(C)(C)C[C@@H]1C(=O)CC[C@H]1C(=C)C | 8.17 |  | Active | > 10 | Active | Active | Active | Active

Further lines, with some results ahead:

Row | IC50 (RAW264.7 [2]; Mus musculus, RAW264.7) [µM] | IC50 (RAW264.7 [2]; raw264.7) [µM] | SMILES | Activity (RAW264.7 [1]) | IC50 at 24 h [3] [µM] | Activity (RAW264.7 [4]) | Activity (RAW264.7 [5]) | Activity (RAW264.7 [6]) | Activity (RAW264.7 [7])
6 | 6.64 |  | CC(=O)OCC1(O)CCC2C1CC(C)(C)CC1CC12C (single isomer, unassigned; (+)) [listing 2 of 2 here] |  | > 10 |  |  |  | 
7 |  | 8.18 | CC(=O)OCC1(O)CCC2C1CC(C)(C)CC1CC12C (single isomer, unassigned; (-)) [listing 1 of 2 here] |  |  |  |  |  | 
